{"source": "patent US9078859B2", "about": "“Use of a synergistic combination of hypothiocyanite and/or hypohalite ions and lactoferrin for preparing a treatment for cystic fibrosis” (ALAXIA, priority 2009, dated 2015)", "type_in_all_cases": "cell-based", "key": {"[1]": {"system": "mucoid strain of Pseudomonas aeruginosa", "experiment": "in vitro contact-time test on a mucoid strain of Pseudomonas aeruginosa", "method": "(§1) The solution from the example was tested in vitro on a mucoid strain of Pseudomonas aeruginosa, Burkholderia cepacia and Methicillin Resistant Staphylococcus Aureus."}, "Burkholderia cepacia": {"system": "Burkholderia cepacia", "experiment": "in vitro contact-time test on Burkholderia cepacia", "method": "as §1\nBurkholderia cenocepacia J2315 (ATCC BAA 245 known to be resistant to Tobramycin and Colistin (Holden 2009, Soiza 2004)), derived from patients with cystic fibrosis."}, "[2]": {"system": "Methicillin Resistant Staphylococcus aureus (MRSA)", "experiment": "in vitro contact-time test on MRSA", "method": "as §1\nMethicillin Resistant Staphylococcus aureus (MRSA)"}}, "data": [{"smiles": "N#CSO", "note": "[500 μM OSCN, hypothiocyanite]", "values": [{"measurement": "bacterial count", "setting": "[1]; contact time 0 hours", "result": 4.14, "unit": "log CFU/ml"}, {"measurement": "bacterial count", "setting": "[1]; contact time 0.5 hours", "result": 3.23, "unit": "log CFU/ml"}, {"measurement": "bacterial count", "setting": "[1]; contact time 1 hour", "result": 3.16, "unit": "log CFU/ml"}, {"measurement": "bacterial count", "setting": "[1]; contact time 2 hours", "result": 2.98, "unit": "log CFU/ml"}, {"measurement": "bacterial count", "setting": "[1]; contact time 4 hours", "result": 2.08, "unit": "log CFU/ml"}, {"measurement": "bacterial count", "setting": "[1]; contact time 6 hours", "result": 1.90, "unit": "log CFU/ml"}, {"measurement": "bacterial count", "setting": "[1]; contact time 24 hours", "result": 1.78, "unit": "log CFU/ml"}, {"measurement": "bacterial count", "setting": "Burkholderia cepacia; contact time 0 hours", "result": 4.41, "unit": "log CFU/ml"}, {"measurement": "bacterial count", "setting": "Burkholderia cepacia; contact time 0.5 hours", "result": 3.64, "unit": "log CFU/ml"}, {"measurement": "bacterial count", "setting": "Burkholderia cepacia; contact time 1 hour", "result": 3.56, "unit": "log CFU/ml"}, {"measurement": "bacterial count", "setting": "Burkholderia cepacia; contact time 2 hours", "result": 3.03, "unit": "log CFU/ml"}, {"measurement": "bacterial count", "setting": "Burkholderia cepacia; contact time 4 hours", "result": 2.08, "unit": "log CFU/ml"}, {"measurement": "bacterial count", "setting": "Burkholderia cepacia; contact time 6 hours", "result": 1.98, "unit": "log CFU/ml"}, {"measurement": "bacterial count", "setting": "Burkholderia cepacia; contact time 24 hours", "result": 1.78, "unit": "log CFU/ml"}, {"measurement": "bacterial count", "setting": "[2]; contact time 0 hours", "result": 4.15, "unit": "log CFU/ml"}, {"measurement": "bacterial count", "setting": "[2]; contact time 0.5 hours", "result": 3.80, "unit": "log CFU/ml"}, {"measurement": "bacterial count", "setting": "[2]; contact time 1 hour", "result": 3.70, "unit": "log CFU/ml"}, {"measurement": "bacterial count", "setting": "[2]; contact time 2 hours", "result": 3.33, "unit": "log CFU/ml"}, {"measurement": "bacterial count", "setting": "[2]; contact time 4 hours", "result": 2.89, "unit": "log CFU/ml"}, {"measurement": "bacterial count", "setting": "[2]; contact time 6 hours", "result": 2.25, "unit": "log CFU/ml"}, {"measurement": "bacterial count", "setting": "[2]; contact time 24 hours", "result": 1.97, "unit": "log CFU/ml"}]}]}
